According to ChEMBL document CHEMBL1201862, “PubChem BioAssay data set” (2004):
“And” between values parts separate entries of the source, which are not always exact repeats. Identical values can stand only once.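 Five concentrations, 48 hours, 96-well plates. The concentration for 50% growth inhibition is given as GI50.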 The source made the active and inactive calls. Rule as the data show it: active = GI50 up to about 1.1 µM and inactive = higher. Where a SMILES comes first, the peptide text is derived from it. [ ]: non-standard residue; d: D form. The star is where a group is joined. Iva = CC[C](C)(N)C(=O)O; Boc = CC(C)(C)OC(=O)*; X54 = C1CCC(=NO*)C1

Assays:
Assay in all cases: NCI tumour cell line growth inhibition, 48 h
[1] = tested on: DMS-114
[2] = tested on: DLD-1
[3] = tested on: SNB-19
[4] = tested on: SN12C
[5] = tested on: HOP-62
[6] = tested on: NCI-H23
[7] = tested on: CAKI-1
[8] = tested on: IGROV-1
[9] = tested on: OVCAR-8
[10] = tested on: A549
[11] = tested on: OVCAR-3
[12] = tested on: COLO 205
[13] = tested on: HCT-15
[14] = tested on: UACC-62
[15] = tested on: OVCAR-4
[16] = tested on: HCC 2998
[17] = tested on: HOP-92
[18] = tested on: NCI/ADR-RES
[19] = tested on: U-251
[20] = tested on: TK-10

| Structure (SMILES) | GI50 [1] | GI50 [2] | GI50 [3] | GI50 [4] | GI50 [5] | GI50 [6] | GI50 [7] | GI50 [8] | GI50 [9] | GI50 [10] | GI50 [11] | GI50 [12] | GI50 [13] | GI50 [14] | GI50 [15] | GI50 [16] | GI50 [17] | GI50 [18] | GI50 [19] | GI50 [20] |
| --- | --- | --- | --- | --- | --- | --- | --- | --- | --- | --- | --- | --- | --- | --- | --- | --- | --- | --- | --- | --- |
| CC1=NN(C(=O)c2ccc(C)cc2)C(=O)C1/N=N/c1ccccc1C(=O)O (stereo unspecified) | > 100 µM (inactive) | > 100 µM (inactive) | > 100 µM (inactive) | > 100 µM (inactive) | > 100 µM (inactive) | > 100 µM (inactive) | > 100 µM (inactive) | > 100 µM (inactive) | > 74.5 µM (inactive) | > 100 µM (inactive) | > 89.1 µM (inactive) | > 100 µM (inactive) | 52.6 µM | > 100 µM (inactive) | > 100 µM (inactive) | > 100 µM (inactive) | > 79.8 µM (inactive) | > 100 µM (inactive) | 85.7 µM (inactive) | – |
| COc1cc2cc[n+]3c(C)c4cc(OC)c(OC)cc4c([O-])c3c2cc1OC | 30.3 µM (inactive) | > 100 µM (inactive) | > 100 µM (inactive) | 32.7 µM (inactive) | > 100 µM (inactive) | 87.7 µM (inactive) | > 100 µM (inactive) | 25.7 µM (inactive) | > 100 µM (inactive) | > 100 µM (inactive) | 3.44 µM (inactive) | 12.4 µM (inactive) | > 100 µM | > 100 µM (inactive) | 85.7 µM (inactive) | > 100 µM (inactive) | > 100 µM (inactive) | – | 47.1 µM (inactive) | > 100 µM (inactive) |
| COc1ccc(/C=N/n2cnc3c(c2=O)SC(=C(C#N)C#N)N3c2ccccc2)cc1 | – | > 100 µM (inactive) | > 100 µM (inactive) | – | 86.5 µM (inactive) | > 100 µM (inactive) | – | > 100 µM (inactive) | > 100 µM (inactive) | > 100 µM (inactive) | > 100 µM (inactive) | > 100 µM (inactive) | – | > 100 µM (inactive) | – | > 100 µM (inactive) | 38.8 µM (inactive) | – | > 100 µM (inactive) | > 100 µM (inactive) |
| COc1cc(C(O)(CC#N)c2cc3c(cc2Br)OCO3)cc(OC)c1OC (stereo unspecified) | – | – | 27.1 µM (inactive) | > 100 µM (inactive) | 1.63 µM (inactive) | 51.9 µM (inactive) | 29.1 µM (inactive) | 20.9 µM (inactive) | 44.9 µM (inactive) | 22.9 µM (inactive) | 18 µM (inactive) | 37.6 µM (inactive) | – | 24.9 µM (inactive) | > 100 µM (inactive) | 24 µM (inactive) | > 100 µM (inactive) | 40 µM (inactive) | 28.6 µM (inactive) | 42.8 µM (inactive) |
| CSc1cc(=O)n2c3ccccc3c3ccnc1c32 | > 100 µM (inactive) | 49.7 µM (inactive) | > 64.3 µM (inactive) | > 100 µM (inactive) | 35.5 µM (inactive) | > 100 µM (inactive) | – | 25.7 µM (inactive) | > 67.9 µM (inactive) | > 100 µM (inactive) | > 100 µM (inactive) | > 100 µM (inactive) | 39.7 µM | 41.4 µM (inactive) | > 100 µM (inactive) | > 100 µM (inactive) | 65.3 µM (inactive) | 73.8 µM (inactive) | > 55.6 µM (inactive) | – |
| CCOC(=O)c1ccc(N2C(=O)/C(=C/c3ccc(N(CCC#N)CCC#N)cc3)N=C2c2cc([N+](=O)[O-])ccc2Cl)cc1 | > 100 µM (inactive) | > 100 µM (inactive) | > 100 µM (inactive) | > 100 µM (inactive) | > 100 µM (inactive) | > 100 µM (inactive) | > 100 µM (inactive) | > 100 µM (inactive) | > 100 µM (inactive) | > 100 µM (inactive) | > 100 µM (inactive) | > 100 µM (inactive) | > 100 µM | 93.3 µM (inactive) | > 100 µM (inactive) | > 100 µM (inactive) | > 100 µM (inactive) | – | > 100 µM (inactive) | > 100 µM (inactive) |
| CC(=O)c1ccc(Oc2ccc(/C(C)=N\N=C(N)N)cc2)cc1 | 1.43 µM (inactive) | 3.56 µM (inactive) | 10.7 µM (inactive) | 3.17 µM (inactive) | 2.26 µM (inactive) | 3.75 µM (inactive) | – | 5.62 µM (inactive) | 3.12 µM (inactive) | 4.12 µM (inactive) | 1.99 µM (inactive) | 1.67 µM (inactive) | 2.17 µM | 2 µM (inactive) | 10.6 µM (inactive) | 8.41 µM (inactive) | 2.96 µM (inactive) | – | 2.77 µM (inactive) | 3.28 µM (inactive) |
| O=C1C(Cl)N(c2ccc(Cl)cc2)C1c1c[nH]c2ccccc12 (stereo unspecified) | 14.2 µM (inactive) | – | 18.2 µM (inactive) | 17.7 µM (inactive) | 17.7 µM (inactive) | 18.4 µM (inactive) | – | 16.7 µM (inactive) | 31.3 µM (inactive) | 33.7 µM (inactive) | 17.6 µM (inactive) | 22.5 µM (inactive) | – | 14.9 µM (inactive) | 39.7 µM (inactive) | – | 22.5 µM (inactive) | – | 13 µM (inactive) | 19.8 µM (inactive) |
| C/C(=N/NC(=O)c1ccncc1)C(F)(F)F | – | – | > 100 µM (inactive) | > 100 µM (inactive) | > 100 µM (inactive) | > 100 µM (inactive) | > 100 µM (inactive) | > 100 µM (inactive) | > 100 µM (inactive) | – | > 100 µM (inactive) | > 100 µM (inactive) | > 100 µM | > 100 µM (inactive) | – | > 100 µM (inactive) | > 100 µM (inactive) | > 100 µM (inactive) | > 100 µM (inactive) | > 100 µM (inactive) |
| COC(=O)/C=C\Sc1ccn(/C=C\C(=O)OC)c(=S)n1 | – | – | 21.8 µM (inactive) | 23.6 µM (inactive) | 17.1 µM (inactive) | 25.8 µM (inactive) | 16.6 µM (inactive) | 16.9 µM (inactive) | 19.2 µM (inactive) | 22.1 µM (inactive) | 13.8 µM (inactive) | 66.5 µM (inactive) | 16.7 µM | – | 16.9 µM (inactive) | 37.1 µM (inactive) | 18.5 µM (inactive) | 19.6 µM (inactive) | 19.9 µM (inactive) | 27.9 µM (inactive) |
| CC(Oc1ccc(Oc2cnc3ccc(Cl)cc3n2)cc1)C(=O)O (stereo unspecified) | – | – | > 100 µM (inactive) | – | > 99.3 µM (inactive) | > 100 µM (inactive) | > 100 µM (inactive) | 37.4 µM (inactive) and 47.4 µM (inactive) | > 82.4 µM (inactive) | 68.5 µM (inactive) | > 100 µM (inactive) | > 70 µM (inactive) | – | > 100 µM (inactive) and 81.1 µM (inactive) | > 100 µM (inactive) | – | > 100 µM (inactive) | – | > 94.6 µM (inactive) | > 100 µM (inactive) |
| CCC(C)(NC(=O)C(C)NC(=O)OC(C)(C)C)C(=O)NC(C)C(=O)NC(C)(CC)C(=O)ON=C1CCCC1 (stereo unspecified) (Boc-A[Iva]A[Iva]-X54; configuration not given here) | – | – | > 100 µM (inactive) | > 100 µM (inactive) | > 100 µM (inactive) | > 100 µM (inactive) | > 100 µM (inactive) | > 100 µM (inactive) | > 100 µM (inactive) | – | > 100 µM (inactive) | > 100 µM (inactive) | > 100 µM | > 100 µM (inactive) | – | > 100 µM (inactive) | > 100 µM (inactive) | > 100 µM (inactive) | > 100 µM (inactive) | – |
